Assay results published in patent US6914045B2, “Glycopeptide antibiotics” (Wyeth Holdings Corporation, priority 2001, dated 2005).
Converted amounts (≈) assume the structure as drawn.

What was measured:
Experiment in all cases: in vitro antibacterial evaluation, MIC by broth dilution
Assay type in all cases: cell-based
Streptococcus sp. = details: broth dilution, 18 hours at 35° C.
Procedure, shortened: (§1)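 Test organisms, which included recent clinical isolates resistant to methicillin, penicillin and/or vancomycin, were inoculated at 5×10^5 CFU/mL into Muller-Hinton II […] containing antibiotic at 64-0.06 μg/mL. Minimum inhibitory concentrations were then read as the lowest level inhibiting growth.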

Escherichia coli = details: 18 hours at 35° C.
Procedure, shortened: as §1

Staphylococcus sp. = details: broth dilution, 18 hours at 35° C.
Procedure, shortened: as §1

Enterococcus sp. = details: broth dilution, 18 hours at 35° C.
Procedure, shortened: as §1

Compound: CC(c1ccccc1)C1NC(=O)CNC(=O)C(CO)NC(=O)C(C(O)C2CNC(=N)N2C2OC(CO)C(O)C(O)C2O)NC(=O)C(C(O)C2CNC(=N)N2)NC(=O)C(Cc2ccc(OC3OC(CO)C(OC4OC(CO)C(O)C5OC(CC67CC8CC(CC(C8)C6)C7)OC45)C(O)C3O)cc2)NC1=O (stereo not shown) [Example 128]
- MIC Streptococcus agalactiae (GC 4564) (Streptococcus sp.; Streptococcus agalactiae (GC 4564)): 0.25 µg/mL (≈ 0.172 µM)
- MIC Streptococcus pneumoniae (ATCC 6301) (Streptococcus sp.; Streptococcus pneumoniae (ATCC 6301)): 0.25 µg/mL (≈ 0.172 µM)
- MIC Streptococcus pneumoniae (GC 1894) (Streptococcus sp.; Streptococcus pneumoniae (GC 1894)): <0.06 µg/mL
- MIC Streptococcus pneumoniae (GC 4565) (Streptococcus sp.; Streptococcus pneumoniae (GC 4565)): 0.12 µg/mL (≈ 0.0824 µM)
- MIC Streptococcus pyogenes (GC 4563) (Streptococcus sp.; Streptococcus pyogenes (GC 4563)): 0.5 µg/mL (≈ 0.344 µM)
- MIC Streptococcus pneumoniae (ATCC 6301) (Streptococcus sp.; strain ATCC 6301): 0.25 µg/mL (≈ 0.172 µM)
- MIC Streptococcus pneumoniae (GC 1894) (Streptococcus sp.; strain GC 1894): <0.06 µg/mL
- MIC Streptococcus pyogenes (GC 4563) (Streptococcus sp.; strain GC 4563): 0.5 µg/mL (≈ 0.344 µM)
- MIC Streptococcus agalactiae (GC 4564) (Streptococcus sp.; strain GC 4564): 0.25 µg/mL (≈ 0.172 µM)
- MIC Streptococcus pneumoniae (GC 4565) (Streptococcus sp.; strain GC 4565): 0.12 µg/mL (≈ 0.0824 µM)
- MIC Escherichia coli (ATCC 25922) (Escherichia coli; strain ATCC 25922): 32 µg/mL (≈ 22 µM)
- MIC Escherichia coli (GC 4559) (Escherichia coli; strain GC 4559): 32 µg/mL (≈ 22 µM)
- MIC Escherichia coli (GC 4560) (Escherichia coli; strain GC 4560): 4 µg/mL (≈ 2.75 µM)
- MIC Staphylococcus aureus (ATCC 29213) (Staphylococcus sp.): 2 µg/mL (≈ 1.37 µM)
- MIC Staphylococcus aureus (GC 1131) (Staphylococcus sp.): 4 µg/mL (≈ 2.75 µM)
- MIC Staphylococcus aureus (GC 3051) (Staphylococcus sp.): 2 µg/mL (≈ 1.37 µM)
- MIC Staphylococcus aureus (GC 3053) (Staphylococcus sp.): 2 µg/mL (≈ 1.37 µM)
- MIC Staphylococcus aureus (GC 4541) (Staphylococcus sp.): 2 µg/mL (≈ 1.37 µM)
- MIC Staphylococcus aureus (GC 4542) (Staphylococcus sp.): 2 µg/mL (≈ 1.37 µM)
- MIC Staphylococcus aureus (GC 4544) (Staphylococcus sp.): 4 µg/mL (≈ 2.75 µM)
- MIC Staphylococcus aureus (GC 4545) (Staphylococcus sp.): 2 µg/mL (≈ 1.37 µM)
- MIC Staphylococcus aureus (GC 1131) (Staphylococcus sp.; inoculum 5×10^5 CFU/mL, strain GC 1131): 4 µg/mL (≈ 2.75 µM)
- MIC Staphylococcus aureus (ATCC 29213) (Staphylococcus sp.; strain ATCC 29213): 2 µg/mL (≈ 1.37 µM)
- MIC Staphylococcus aureus (GC 3051) (Staphylococcus sp.; strain GC 3051): 2 µg/mL (≈ 1.37 µM)
- MIC Staphylococcus aureus (GC 3053) (Staphylococcus sp.; strain GC 3053): 2 µg/mL (≈ 1.37 µM)
- MIC Staphylococcus aureus (GC 4541) (Staphylococcus sp.; strain GC 4541): 2 µg/mL (≈ 1.37 µM)
- MIC Staphylococcus aureus (GC 4542) (Staphylococcus sp.; strain GC 4542): 2 µg/mL (≈ 1.37 µM)
- MIC Staphylococcus aureus-SMITH (GC 4543) (Staphylococcus sp.; strain GC 4543): 2 µg/mL (≈ 1.37 µM)
- MIC Staphylococcus aureus (GC 4544) (Staphylococcus sp.; strain GC 4544): 4 µg/mL (≈ 2.75 µM)
- MIC Staphylococcus aureus (GC 4545) (Staphylococcus sp.; strain GC 4545): 2 µg/mL (≈ 1.37 µM)
- MIC Staphylococcus haemolyticus (GC 4546) (Staphylococcus sp.; strain GC 4546): 2 µg/mL (≈ 1.37 µM)
- MIC Coagulase Negative Staphylococcus (GC 4547) (Staphylococcus sp.; strain GC 4547): 4 µg/mL (≈ 2.75 µM)
- MIC Coagulase Negative Staphylococcus (GC 4548) (Staphylococcus sp.; strain GC 4548): 2 µg/mL (≈ 1.37 µM)
- MIC Coagulase Negative Staphylococcus (GC 4549) (Staphylococcus sp.; strain GC 4549): 2 µg/mL (≈ 1.37 µM)
- MIC Coagulase Negative Staphylococcus (GC 4551) (Staphylococcus sp.; strain GC 4551): 4 µg/mL (≈ 2.75 µM)
- MIC Coagulase Negative Staphylococcus (GC 6257) (Staphylococcus sp.; strain GC 6257): 2 µg/mL (≈ 1.37 µM)
- MIC Staphylococcus aureus-SMITH (GC 4543) (Staphylococcus sp.; strain SMITH GC 4543): 2 µg/mL (≈ 1.37 µM)
- MIC Enterococcus avium (GC 4558) (Enterococcus sp.; Enterococcus avium (GC 4558)): 4 µg/mL (≈ 2.75 µM)
- MIC Enterococcus faecalis (ATCC 29212) (Enterococcus sp.; Enterococcus faecalis (ATCC 29212)): 4 µg/mL (≈ 2.75 µM)
- MIC Enterococcus faecalis (GC 2242) (Enterococcus sp.; Enterococcus faecalis (GC 2242)): 4 µg/mL (≈ 2.75 µM)
- MIC Enterococcus faecalis (GC 2691) (Enterococcus sp.; Enterococcus faecalis (GC 2691)): 4 µg/mL (≈ 2.75 µM)
- MIC Enterococcus faecalis (GC 3059) (Enterococcus sp.; Enterococcus faecalis (GC 3059)): 4 µg/mL (≈ 2.75 µM)
- MIC Enterococcus faecalis (GC 4552) (Enterococcus sp.; Enterococcus faecalis (GC 4552)): 4 µg/mL (≈ 2.75 µM)
- MIC Enterococcus faecalis (GC 4553) (Enterococcus sp.; Enterococcus faecalis (GC 4553)): 4 µg/mL (≈ 2.75 µM)
- MIC Enterococcus faecalis (GC 4554) (Enterococcus sp.; Enterococcus faecalis (GC 4554)): 4 µg/mL (≈ 2.75 µM)
- MIC Enterococcus faecalis (GC 6189) (Enterococcus sp.; Enterococcus faecalis (GC 6189)): 4 µg/mL (≈ 2.75 µM)
- MIC Enterococcus faecium (GC 2243) (Enterococcus sp.; Enterococcus faecium (GC 2243)): 4 µg/mL (≈ 2.75 µM)
- MIC Enterococcus faecium (GC 4556) (Enterococcus sp.; Enterococcus faecium (GC 4556)): 4 µg/mL (≈ 2.75 µM)
- MIC Enterococcus faecium (GC 4557) (Enterococcus sp.; Enterococcus faecium (GC 4557)): 4 µg/mL (≈ 2.75 µM)
- MIC Enterococcus faecalis (ATCC 29212) (Enterococcus sp.; strain ATCC 29212): 4 µg/mL (≈ 2.75 µM)
- MIC Enterococcus faecalis (GC 2242) (Enterococcus sp.; strain GC 2242): 4 µg/mL (≈ 2.75 µM)
- MIC Enterococcus faecium (GC 2243) (Enterococcus sp.; strain GC 2243): 4 µg/mL (≈ 2.75 µM)
- MIC Enterococcus faecalis (GC 2691) (Enterococcus sp.; strain GC 2691): 4 µg/mL (≈ 2.75 µM)
- MIC Enterococcus faecalis (GC 3059) (Enterococcus sp.; strain GC 3059): 4 µg/mL (≈ 2.75 µM)
- MIC Enterococcus faecalis (GC 4552) (Enterococcus sp.; strain GC 4552): 4 µg/mL (≈ 2.75 µM)
- MIC Enterococcus faecalis (GC 4553) (Enterococcus sp.; strain GC 4553): 4 µg/mL (≈ 2.75 µM)
- MIC Enterococcus faecalis (GC 4554) (Enterococcus sp.; strain GC 4554): 4 µg/mL (≈ 2.75 µM)
- MIC Enterococcus faecium (GC 4556) (Enterococcus sp.; strain GC 4556): 4 µg/mL (≈ 2.75 µM)
- MIC Enterococcus faecium (GC 4557) (Enterococcus sp.; strain GC 4557): 4 µg/mL (≈ 2.75 µM)
- MIC Enterococcus avium (GC 4558) (Enterococcus sp.; strain GC 4558): 4 µg/mL (≈ 2.75 µM)
- MIC Enterococcus faecalis (GC 6189) (Enterococcus sp.; strain GC 6189): 4 µg/mL (≈ 2.75 µM)
